For 112 molecules, viability and Activity results are on record in ChEMBL document CHEMBL1212835, “Identification of a potent and noncytotoxic inhibitor of melanin production” (Bioorg Med Chem, 2010).

Where “and” joins values, the source holds several entries; their conditions need not be identical. Identical values can stand only once.

The nature of the first data set: Cytotoxicity against mouse Melan-a cells assessed as cell viability at 30 uM. Format: cell-based. As to conditions: Melan-a cells, read-out: Activity.
`COC(=O)c1ccc(NC(=O)c2ccc(C#N)cc2)cc1`: the viability at 30 µM amounted to 14.2%. The same measure, in the same setting: to `COc1cccc(NC(=O)c2cccc(C)c2)c1` belongs -0.3%; to `Cc1ccc(NC(=O)c2cccc(C)c2)cc1`, -2.4%; to `Cc1ccc(C(=O)Nc2cc(C)cc(C)c2)cc1`, 30.9%. As to `Cc1ccccc1C(=O)Nc1cc(C(F)(F)F)cc(C(F)(F)F)c1`, the viability at 30 µM was 15.1%. As for `COc1cc(NC(=O)c2cccc(C)c2)cc(OC)c1`, the viability at 30 µM was -12.6%. `Cc1cc(C)cc(NC(=O)c2cccc(C)c2)c1`: the viability at 30 µM was determined as 6%. With `COc1ccc(NC(=O)c2ccco2)cc1`, the viability at 30 µM worked out at 13.6%. `COC(=O)c1cccc(NC(=O)c2ccc(C#N)cc2)c1`: the viability at 30 µM stood at 0.8%. Still for that read-out and setting: the result for `COc1ccc(NC(=O)c2cccc(C)c2)c(OC)c1` reads 3.2%. Regarding `Cc1cc(C)cc(NC(=O)c2ccccc2C)c1`, the viability at 30 µM was 25.6%. Consider `COc1cccc(NC(=O)c2cccc(OC)c2)c1`, for which the viability at 30 µM is -8.4%.

Take `COc1ccccc1NC(=O)c1ccco1`: the viability at 30 µM is -5.4%. As to `COc1ccc(C(=O)Nc2cc(OC)ccc2OC)cc1`, the viability at 30 µM was -8.3%. Still for that read-out and setting: the result for `CCCCOc1ccc(NC(=O)c2ccc(CC)cc2)cc1` reads -10.8%.

For `CCCCOc1ccc(NC(=O)c2ccco2)cc1`, the viability at 30 µM was found to be 3.7%. On to `COc1cccc(C(=O)Nc2cccc(C)c2)c1`, for which the viability at 30 µM is 12%. For the molecule `COc1ccc(NC(=O)c2cccc(OC)c2)cc1`, the viability at 30 µM was 0.5%. Take `COc1ccc(NC(=O)c2ccccc2C)c(OC)c1`: the viability at 30 µM is -3.5%. With `COc1ccc(NC(=O)c2ccc(C#N)cc2)c(OC)c1`, the viability at 30 µM is 7.2%. Same read-out and setting: to `COC(=O)c1cccc(NC(=O)c2ccco2)c1` belongs 0.4%; to `COC(=O)c1ccccc1NC(=O)c1ccccc1C`, 9.7%. On to `COc1ccc(C(=O)Nc2ccccc2OC)cc1`, for which the viability at 30 µM is -2.6%. The same measure, in the same setting: to `COC(=O)c1cccc(NC(=O)c2ccc(OC)cc2)c1` belongs 18.8%; to `COc1ccc(NC(=O)c2ccc(OC)cc2)cc1`, -10.6%. Still for that read-out and setting: to `COc1ccc(NC(=O)c2ccc(C)cc2)c(OC)c1` belongs 14.4%; to `CCCCOc1ccc(NC(=O)c2cccc(OC)c2)cc1`, 19.1%.

For the molecule `Cc1cccc(C(=O)Nc2cc(C(F)(F)F)cc(C(F)(F)F)c2)c1`, the viability at 30 µM was -2.3%.

Take `COC(=O)c1cccc(NC(=O)c2cccc(C)c2)c1`: the viability at 30 µM was determined as 10.5%.

For `COC(=O)c1ccc(NC(=O)c2ccc(C)cc2)cc1`, the viability at 30 µM turned out to be 11.2%. `COc1cc(NC(=O)c2ccccc2C)cc(OC)c1`: the viability at 30 µM stood at 6.4%.

As for `COc1cccc(C(=O)Nc2ccc(C)cc2)c1`, the viability at 30 µM came out at 7.5%.

As for `COC(=O)c1ccccc1NC(=O)c1ccco1`, the viability at 30 µM was -2.3%. Regarding `COc1ccc(C(=O)Nc2cc(C(F)(F)F)cc(C(F)(F)F)c2)cc1`, the viability at 30 µM is 21%.

As to `Cc1ccc(NC(=O)c2ccccc2C)cc1`, the viability at 30 µM is -0.2%. For the molecule `CCCCOc1ccc(NC(=O)c2ccc(C#N)cc2)cc1`, the viability at 30 µM was -4.4%. In the case of `CCc1ccc(C(=O)Nc2cccc(OC)c2)cc1`, the viability at 30 µM is 6.3%. Turning to `Cc1cc(C)cc(NC(=O)c2ccco2)c1`, the viability at 30 µM worked out at 14.2%. On to `CC(=O)c1ccc(NC(=O)c2cccc(C)c2)cc1`, for which the viability at 30 µM is -5.9%. With `Cc1ccc(NC(=O)c2ccco2)cc1`, the viability at 30 µM amounted to 7.9%. For `COc1ccc(C(=O)Nc2cc(OC)cc(OC)c2)cc1`, the viability at 30 µM was determined as 13.6%. Take `COC(=O)c1ccc(NC(=O)c2cccc(C)c2)cc1`: the viability at 30 µM stood at 12.9%.

`COc1ccc(NC(=O)c2ccc(C)cc2)cc1`: the viability at 30 µM turned out to be 4.9%. As for `COc1ccc(OC)c(NC(=O)c2cccc(C)c2)c1`, the viability at 30 µM was found to be 0.3%. In the case of `COc1cccc(NC(=O)c2ccco2)c1`, the viability at 30 µM amounted to 0.4%.

Consider `CCc1ccc(C(=O)Nc2ccc(OC)cc2)cc1`, for which the viability at 30 µM was -9.9%. Consider `COc1cccc(C(=O)Nc2ccccc2OC)c1`, for which the viability at 30 µM amounted to 10.1%. As to `Cc1cc(C)cc(NC(=O)c2ccc(C#N)cc2)c1`, the viability at 30 µM was found to be 31.6%. Regarding `COC(=O)c1ccc(NC(=O)c2cccc(OC)c2)cc1`, the viability at 30 µM came to 13.7%. The same measure, in the same setting: to `CCc1ccc(C(=O)Nc2ccccc2OC)cc1` belongs 13.5%; to `CCc1ccc(C(=O)Nc2cc(C(F)(F)F)cc(C(F)(F)F)c2)cc1`, 16.5%.

As for `COc1ccccc1NC(=O)c1ccccc1C`, the viability at 30 µM was 7%. For `COc1ccc(OC)c(NC(=O)c2ccc(C#N)cc2)c1`, the viability at 30 µM was -1.7%. With `Cc1cccc(NC(=O)c2cccc(C)c2)c1`, the viability at 30 µM is -0.1%. Take `COC(=O)c1cccc(NC(=O)c2ccccc2C)c1`: the viability at 30 µM worked out at 4.6%. On to `COC(=O)c1cccc(NC(=O)c2cccc(OC)c2)c1`, for which the viability at 30 µM turned out to be 20.1%. `CCc1ccc(C(=O)Nc2ccccc2C(=O)OC)cc1`: the viability at 30 µM was 18.9%. Turning to `Cc1ccc(NC(=O)c2ccc(C)cc2)cc1`, the viability at 30 µM was 13.9%.

With `N#Cc1ccc(C(=O)Nc2cc(C(F)(F)F)cc(C(F)(F)F)c2)cc1`, the viability at 30 µM came out at 33.3%. In the case of `COc1ccc(NC(=O)c2ccccc2C)cc1`, the viability at 30 µM was 12.8%. The same measure, in the same setting: to `CCCCOc1ccc(NC(=O)c2ccc(C)cc2)cc1` belongs -2.4%; to `CC(=O)c1ccc(NC(=O)c2ccc(C)cc2)cc1`, 11.2%; to `COc1ccc(NC(=O)c2ccc(C#N)cc2)cc1`, 8.8%. As to `Cc1ccc(C(=O)Nc2cc(C(F)(F)F)cc(C(F)(F)F)c2)cc1`, the viability at 30 µM turned out to be 0.3%. Regarding `COc1cccc(NC(=O)c2ccccc2C)c1`, the viability at 30 µM was found to be 13.4%. Turning to `CCc1ccc(C(=O)Nc2cccc(C)c2)cc1`, the viability at 30 µM was -2.2%.

Take `CCc1ccc(C(=O)Nc2ccc(OC)cc2OC)cc1`: the viability at 30 µM was -6.5%. Regarding `Cc1cccc(NC(=O)c2ccco2)c1`, the viability at 30 µM is -1.3%. In the case of `O=C(Nc1cc(C(F)(F)F)cc(C(F)(F)F)c1)c1ccco1`, the viability at 30 µM worked out at 31.9%.

With `COc1cccc(C(=O)Nc2ccc(OC)cc2OC)c1`, the viability at 30 µM was -3.9%. As to `COc1ccc(NC(=O)c2c(OC)cccc2OC)cc1`, the viability at 30 µM was found to be 10.2%. Same read-out and setting: the result for `Cc1cccc(NC(=O)c2ccccc2C)c1` reads 5.8%; that for `COc1cc(NC(=O)c2ccco2)cc(OC)c1`, -1.3%; that for `COc1cc(NC(=O)c2ccc(C)cc2)cc(OC)c1`, 19.2%. In the case of `COc1ccccc1NC(=O)c1cccc(C)c1`, the viability at 30 µM is 11.1%. As to `CCc1ccc(C(=O)Nc2ccc(C)cc2)cc1`, the viability at 30 µM was 1.8%. On the same count and under the same terms, to `CC(=O)c1ccc(NC(=O)c2ccc(C#N)cc2)cc1` belongs 6.9%; to `COc1ccc(C(=O)Nc2cccc(OC)c2)cc1`, 0.6%; to `COc1cccc(C(=O)Nc2cc(C(F)(F)F)cc(C(F)(F)F)c2)c1`, 9%. Consider `COc1cccc(C(=O)Nc2ccc(C(C)=O)cc2)c1`, for which the viability at 30 µM was -5%. For `Cc1ccc(NC(=O)c2ccc(C#N)cc2)cc1`, the viability at 30 µM turned out to be 10.9%. Regarding `COC(=O)c1cccc(NC(=O)c2ccc(C)cc2)c1`, the viability at 30 µM amounted to 16.4%. Turning to `COC(=O)c1ccccc1NC(=O)c1ccc(C#N)cc1`, the viability at 30 µM turned out to be 8%. Regarding `COc1cccc(C(=O)Nc2cc(OC)ccc2OC)c1`, the viability at 30 µM came to 17.8%. On the same count and under the same terms, to `COc1ccc(C(=O)Nc2ccc(C(C)=O)cc2)cc1` belongs 0.7%; to `CCCCOc1ccc(NC(=O)c2ccc(OC)cc2)cc1`, 1%. On to `CCc1ccc(C(=O)Nc2cccc(C(=O)OC)c2)cc1`, for which the viability at 30 µM was determined as 37%. The same measure, in the same setting: the result for `COc1cc(NC(=O)c2ccc(C#N)cc2)cc(OC)c1` reads 9.6%; that for `CCc1ccc(C(=O)Nc2cc(OC)ccc2OC)cc1`, -19.8%. In the case of `CCCCOc1ccc(NC(=O)c2ccccc2C)cc1`, the viability at 30 µM is 9.9%. With `COC(=O)c1ccccc1NC(=O)c1cccc(C)c1`, the viability at 30 µM turned out to be 29.6%. As to `CC(=O)c1ccc(NC(=O)c2ccccc2C)cc1`, the viability at 30 µM is 0.1%. On to `COc1cccc(NC(=O)c2ccc(C)cc2)c1`, for which the viability at 30 µM is 2.7%. On the same count and under the same terms, the result for `COc1ccc(OC)c(NC(=O)c2ccc(C)cc2)c1` reads -3.2%; that for `COc1ccc(C(=O)Nc2cccc(C)c2)cc1`, -1.7%. As to `Cc1cccc(NC(=O)c2ccc(C#N)cc2)c1`, the viability at 30 µM stood at 11.1%. The same measure, in the same setting: the result for `CCc1ccc(C(=O)Nc2ccc(C(=O)OC)cc2)cc1` reads 2%; that for `Cc1ccc(C(=O)Nc2cccc(C)c2)cc1`, 14.3%; that for `COc1cccc(NC(=O)c2ccc(C#N)cc2)c1`, -9.4%.

On to `CCc1ccc(C(=O)Nc2cc(OC)cc(OC)c2)cc1`, for which the viability at 30 µM was 10.1%. Consider `COC(=O)c1ccccc1NC(=O)c1cccc(OC)c1`, for which the viability at 30 µM worked out at 11.1%. Still for that read-out and setting: the result for `COC(=O)c1ccc(NC(=O)c2ccccc2C)cc1` reads 0.8%; that for `COc1ccc(OC)c(NC(=O)c2ccco2)c1`, -17%; that for `COC(=O)c1ccccc1NC(=O)c1ccc(C)cc1`, 20.1%. Consider `COc1ccc(NC(=O)c2ccco2)c(OC)c1`, for which the viability at 30 µM is -24.1%.

In the case of `COc1ccc(C(=O)Nc2cc(C)cc(C)c2)cc1`, the viability at 30 µM amounted to 31.9%. With `CC(=O)c1ccc(NC(=O)c2ccco2)cc1`, the viability at 30 µM was -2.6%. In the case of `COc1ccc(C(=O)Nc2ccc(OC)cc2OC)cc1`, the viability at 30 µM was -9.4%. Same read-out and setting: to `COc1ccc(NC(=O)c2cccc(C)c2)cc1` belongs -0.4%; to `COC(=O)c1ccc(NC(=O)c2ccc(OC)cc2)cc1`, -5.6%; to `CCc1ccc(C(=O)Nc2ccc(C(C)=O)cc2)cc1`, 3.4%.

The data set is the same for the next values; noted with them: melan-a, 30 µM.
Turning to `CCc1ccc(C(=O)Nc2cc(C)cc(C)c2)cc1`, the Activity is 41.5% and > 90%.
